Experimental findings from doi:10.1101/2023.10.24.563163v2, “Targeting cancer with small molecule pan-KRAS degraders” (biorxiv, 2024) are described below.

In general, Dmax refers to the largest share of the target that was removed. What is called DC50 is the midpoint of the concentration-degradation curve.

What all share (design): endogenous; KRAS degradation by capillary electrophoresis immunodetection
One assay concerns the target KRAS^G12C (Homo sapiens, UniProt P01116, G12C). As to the kind of experiment: cell-based. To be noted: NCI-H358; read-out: Dmax 24 h NCI-H358 [%]. As to the method: (§1) Protein Detection by Capillary Electrophoresis Cells (50 000) were seeded the day before treatment into 96-well clear-flat bottom plates and incubated overnight (37 °C, humidified tissue culture incubator, 5% CO2). Compounds were added from DMSO stock solution using a digital dispenser and cells are incubated at 37 °C as specified (24 hours for KRAS degradation, 6 hours for determination of pERK levels). At the end of the incubation, medium was removed, cells washed with ice cold PBS, PBS removed and 50 µL lysis buffer (Meso Scale Discovery #R60TX-2) supplemented with 1:100 protease inhibitor solution, 1:100 phosphatase inhibitor I, 1:100 phosphatase inhibitor II (Meso Scale Discovery #R70AA-1), 0.5 µL/mL Benzonase (Novagen #70664-3) and 10 mM dithiothreitol added to each well. Plates with lysis buffer were immediately transferred to -80 °C freezer for at least 2 hours and then thawed on ice. Lysates were transferred to a 96 well V-bottom plate and insoluble debris was pelleted by centrifugation for 20 min. at 4 000 rpm. 40 µL of the supernatant were transferred to a fresh Eppendorf PCR plate. Analysis of protein levels was conducted using the Wes System, ProteinSimple (https://www.bio-techne.com/) as specified by the manufacturer. Briefly, Wes Master Mix (12-230 kDa WES Separation Module, 8 × 25 capillary cartridges, ProteinSimple #SM-W004) and molecular weight markers were prepared as specified in the manufacturer’s recommendations. To detect primary antibodies, anti-rabbit (Protein Simple #DM-001) or anti-mouse (Protein Simple #DM-002) detection modules were used. 7.2 µL lysate + 1.8 µL master mix were combined and heated to 95 °C for 5 min. […] Next, we set out to test the ability of a single pan-KRAS degrading molecule, compound 4, to selectively suppress oncogenic signaling and proliferation in cancer cell lines driven by diverse KRAS mutants. To this end, we first confirmed degradation of KRAS by compound 4 in KRAS-dependent (GP2d, SW620 and NCI-H358 expressing KRAS^G12D, - G12V or -G12C, respectively) as well as in KRAS independent (A-375, HEK293) cell lines (Fig. 3A, fig. S4A). […] Both inhibition and degradation repressed the established markers of MAPK signaling pERK (fig. S4B-D) and DUSP6 (Fig. 3B, fig. S4E) in KRAS dependent cell lines. […] Neither degradation nor inhibition had appreciable antiproliferative effects in the KRAS independent cell lines A-375 and HEK293 (Fig. 3C, fig. S4F).

Assay [1] addresses T1, KRAS^G12D (Homo sapiens, UniProt P01116, G12D). The assay can be described thus: cell-based. To be noted: GP2d; read-out: Dmax 24 h GP2d [%]. How it is done:
as §1

In assay [2] the target is T2, KRAS^G12V (Homo sapiens, UniProt P01116, G12V). The assay can be described thus: cell-based. To be noted: SW-620; read-out: Dmax 24 h SW620 [%]. As to the method:
as §1

Assay [3] has as its target T1, KRAS^G12D. The assay can be described thus: cell-based. As to conditions: GP5d; read-out: Dmax 24 h GP5d [%]. As to the method:
Protein Detection by Capillary Electrophoresis Cells (50 000) were seeded the day before treatment into 96-well clear-flat bottom plates and incubated overnight (37 °C, humidified tissue culture incubator, 5% CO2). Compounds were added from DMSO stock solution using a digital dispenser and cells are incubated at 37 °C as specified (24 hours for KRAS degradation, 6 hours for determination of pERK levels). At the end of the incubation, medium was removed, cells washed with ice cold PBS, PBS removed and 50 µL lysis buffer (Meso Scale Discovery #R60TX-2) supplemented with 1:100 protease inhibitor solution, 1:100 phosphatase inhibitor I, 1:100 phosphatase inhibitor II (Meso Scale Discovery #R70AA-1), 0.5 µL/mL Benzonase (Novagen #70664-3) and 10 mM dithiothreitol added to each well. Plates with lysis buffer were immediately transferred to -80 °C freezer for at least 2 hours and then thawed on ice. Lysates were transferred to a 96 well V-bottom plate and insoluble debris was pelleted by centrifugation for 20 min. at 4 000 rpm. 40 µL of the supernatant were transferred to a fresh Eppendorf PCR plate. Analysis of protein levels was conducted using the Wes System, ProteinSimple (https://www.bio-techne.com/) as specified by the manufacturer. Briefly, Wes Master Mix (12-230 kDa WES Separation Module, 8 × 25 capillary cartridges, ProteinSimple #SM-W004) and molecular weight markers were prepared as specified in the manufacturer’s recommendations. To detect primary antibodies, anti-rabbit (Protein Simple #DM-001) or anti-mouse (Protein Simple #DM-002) detection modules were used. 7.2 µL lysate + 1.8 µL master mix were combined and heated to 95 °C for 5 min.

Assay [4] addresses T2, KRAS^G12V. As to conditions: read-out: DC50 24 h SW620 (converted).

Where two headings read alike, the source gives them in different places. Some results are limits rather than exact numbers.

T1 sequence (P01116 whole entry G12D): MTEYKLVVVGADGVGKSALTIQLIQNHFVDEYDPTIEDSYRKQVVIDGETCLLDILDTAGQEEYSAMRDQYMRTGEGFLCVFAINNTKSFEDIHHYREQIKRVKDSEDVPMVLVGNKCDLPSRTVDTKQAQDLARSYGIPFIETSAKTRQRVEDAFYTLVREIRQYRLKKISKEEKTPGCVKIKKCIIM
T2 sequence (P01116 whole entry G12V): as the sequence (P01116 whole entry G12D) above, with D12V counted along it
Chain of KRAS^G12C (P01116 whole entry G12C): as the sequence (P01116 whole entry G12D) above, with D12C counted along it

As to `Cc1ncsc1-c1ccc(CNC(=O)C2CC(O)CN2C(=O)C(c2cc(OCCCCN3CCCN(c4nccc(-c5noc(C6(C)CCCc7sc(N)c(C#N)c76)n5)n4)C(C)C3)no2)C(C)C)cc1` (stereo not shown) [compound 5], the Dmax at KRAS^G12C was under 25%; at KRAS^G12D [1] it was under 15%; on KRAS^G12V [2] it was under 15%.
On to `Cc1ncsc1-c1ccc(CNC(=O)[C@@H]2C[C@@H](O)CN2C(=O)[C@@H](c2cc(OCCCCN3CCCN(c4nccc(-c5noc([C@@]6(C)CCCc7sc(N)c(C#N)c76)n5)n4)[C@@H](C)C3)no2)C(C)C)cc1` [compound 4], for which the Dmax was found to be 100% at KRAS^G12D [3], 86% at KRAS^G12C, 96% on KRAS^G12D [1] and 89% at KRAS^G12V [2].
For the compound `Cc1ncsc1-c1ccc(CNC(=O)[C@@H]2C[C@@H](O)CN2C(=O)[C@@H](NC(=O)CCCCCN2CCCN(c3nccc(-c4noc([C@@]5(C)CCCc6sc(N)c(C#N)c65)n4)n3)[C@@H](C)C2)C(C)(C)C)cc1` [compound 3], the DC50 on KRAS^G12V [4] was 278 nM. Besides, the Dmax was found to be 99% at KRAS^G12D [3], 81% at KRAS^G12C, 96% on KRAS^G12D [1] and 88% on KRAS^G12V [2].
Consider `Cc1ncsc1-c1ccc([C@H](CO)NC(=O)[C@@H]2C[C@@H](O)CN2C(=O)[C@H](C(C)C)n2cc(OCCCCN3CCCN(c4nccc(-c5noc([C@@]6(C)CCCc7sc(N)c(C#N)c76)n5)n4)[C@@H](C)C3)nn2)cc1` [compound 7, ACBI3], for which the DC50 on KRAS^G12V [4] was 6.9 nM. Further, the figures for the maximal degradation (Dmax) at KRAS^G12D [3], at KRAS^G12D [1] and on KRAS^G12V [2] were 99%, 99% and 83%, respectively.
For the compound `Cc1ncsc1-c1ccc(CNC(=O)[C@@H]2C[C@@H](O)CN2C(=O)[C@@H](NC(=O)COCCCN2CCCN(c3nccc(-c4noc([C@@]5(C)CCCc6sc(N)c(C#N)c65)n4)n3)[C@@H](C)C2)C(C)(C)C)cc1` [compound 2], on KRAS^G12V [4], the DC50 is 1200 nM. Besides, the Dmax on KRAS^G12D [3] and on KRAS^G12V [2] was 100% throughout.
